Assay [1] addresses translation of firefly luciferase, S. aureus 133 S30 extract. The assay can be described thus: In vitro transcription-translation with S. aureus extracts. Type of assay: biochemical. The note with it: reporter plasmid pla, 30° C., 60 min, luciferase luminescence. An excerpt:
(§1) In vitro Transcription-translation with S. aureus Extracts
(§2) Construction of an S. aureus Luciferase Reporter Plasmid
(§3) A reporter plasmid which can be used in an in vitro transcription-translation assay for S. aureus is constructed by using the plasmid pBESTluc (Promega Corporation, USA). The E. coli tac promoter present in this plasmid in front of the firefly luciferase is replaced by the capAl promoter with appropriate Shine-Dalgarno sequence from S. aureus. The primers CAPFor 5′-[…] […]-3′ and CAPRev 5′-[…]-3′ are used for this. The primer CAPFor contains the capAl promoter, the ribosome binding site and the 5′ region of the luciferase gene. After PCR using pBESTluc as template it is possible to isolate a PCR product which contains the firefly luciferase gene with the fused capAl promoter. This is, after restriction with Clal and HindIII, ligated into the vector pBESTluc which has likewise been digested with ClaI and HindIII. The resulting plasmid pla is able to replicate in E. coli and be used as template in the S. aureus in vitro transcription-translation assay.
(§4) Preparation of S30 Extracts from S. aureus
(§5) Six liters of BHI medium are inoculated with a 250 ml overnight culture of an S. aureus strain and allowed to grow at 37° C. until the OD600 nm is 2-4. The cells are harvested by centrifugation and washed in 500 ml of cold buffer A (10 mM Tris acetate, pH 8.0, 14 mM Mg acetate, 1 mM DTT, 1 M KCl). After renewed centrifugation, the cells are washed in 250 ml of cold buffer A with 50 mM KCl, and the resulting pellets are frozen at −20° C. for 60 min. The pellets are thawed on ice in 30 to 60 min and taken up to a total volume of 99 ml in buffer B (10 mM Tris acetate, pH 8.0, 20 mM Mg acetate, 1 mM DTT, 50 mM KCl). 1.5 ml portions of lysostaphin (0.8 mg/ml) in buffer B are introduced into 3 precooled centrifuge cups and each mixed with 33 ml of the cell suspension. The samples are incubated at 37° C., shaking occasionally, for 45 to 60 min, before 150 μl of a 0.5 M DTT solution are added. The lyzed cells are centrifuged at 30 000×g and 4° C. for 30 min. The cell pellet is taken up in buffer B and then centrifuged again under the same conditions, and the collected supernatants are combined. The supernatants are centrifuged again under the same conditions, and 0.25 volume of buffer C (670 mM Tris acetate, pH 8.0, 20 mM Mg acetate, 7 mM Na3 phosphenolpyruvate, 7 mM DTT, 5.5 mM ATP, 70 μM amino acids (complete from Promega), 75 μg of pyruvate kinase (Sigma, Germany)/ml are added to the upper 2/3 of the supernatant. The samples are incubated at 37° C. for 30 min. The supernatants are dialyzed against 2 l of dialysis buffer (10 mM Tris acetate, pH 8.0, 14 mM Mg acetate, 1 mM DTT, 60 mM K acetate) in a dialysis tube with a 3500 Da cut-off with one buffer change at 4° C. overnight. The dialysate is concentrated to a protein concentration of about 10 mg/ml by covering the dialysis tube with cold PEG 8000 powder (Sigma, Germany) at 4° C. The S30 extracts can be stored in aliquots at −70° C.
(§6) Determination of the IC50 in the S. aureus in vitro Transcription-translation Assay
(§7) Inhibition of protein biosynthesis of the compounds can be shown in an in vitro transcription-translation assay. The assay is based on the cell-free transcription and translation of firefly luciferase using the reporter plasmid pla as template and cell-free S30 extracts obtained from S. aureus. The activity of the resulting luciferase can be detected by luminescence measurement. […]

Assay [2] concerns S. aureus 133. The assay can be described thus: Minimum inhibitory concentration (MIC), liquid dilution test. Type of assay: cell-based. On the procedure: (§8) Determination of the Minimum Inhibitory Concentration (MIC):
(§9) The minimum inhibitory concentration (MIC) is the minimum concentration of an antibiotic with which the growth of a test microbe is inhibited over 18-24 h. The inhibitor concentration can in these cases be determined by standard microbiological methods (see, for example, The National Committee for Clinical Laboratory Standards. Methods for dilution antimicrobial susceptibility tests for bacteria that grow aerobically; approved standard-fifth edition. NCCLS document M7-A5 [ISBN 1-56238-394-9]. NCCLS, 940 West Valley Road, Suite 1400, Wayne, Pa. 19087-1898 USA, 2000). The MIC of the compounds of the invention is determined in the liquid dilution test on the 96-well microtiter plate scale. The bacterial microbes are cultivated in a minimal medium (18.5 mM Na2HPO4, 5.7 mM KH2PO4, 9.3 mM NH4Cl, 2.8 mM MgSO4, 17.1 mM NaCl, 0.033 μg/ml thiamine hydrochloride, 1.2 μg/ml nicotinic acid, 0.003 μg/ml biotin, 1% glucose, 25 μg/ml of each proteinogenic amino acid with the exception of phenylalanine; [H.-P. Kroll; unpublished]) with addition of 0.4% BH broth (test medium). In the case of Enterococcus faecalis ICB 27159, heat-inactivated fetal calf serum (FCS; GibcoBRL, Germany) is added to the test medium in a final concentration of 10%. Overnight cultures of the test microbes are diluted to an OD578 of 0.001 (to 0.01 in the case of Enterococci) in fresh test medium, and incubated 1:1 with dilutions of the test substances (1:2 dilution steps) in test medium (150 μl final volume). The cultures are incubated at 37° C. for 18-24 hours; Enterococci in the presence of 5% CO2.
(§10) The lowest substance concentration in each case at which bacterial growth was no longer visible is defined as the MIC. […] The compounds show a graded antibacterial effect against most of the test microbes.

The test system of assay [3] is translation of firefly luciferase, Escherichia coli MRE 600 S30 extract. The assay can be described thus: In vitro transcription-translation with E. coli extracts. The settings on record: plasmid pBESTLuc, 30° C., 60 min, luciferase luminescence, read-out: IC50 E. coli MRE600 Translation. The assay is classed as biochemical. On the procedure: In vitro Transcription-translation with E. coli Extracts
An S30 extract is prepared by harvesting logarithmically growing Escherichia coli MRE 600 (M. Müller; University Freiburg), washing and employing them as described for the in vitro transcription-translation assay (Müller, M. and Blobel, G. Proc Natl Acad Sci USA (1984) 81, pp. 7421-7425).
1 μl of cAMP (11.25 mg/ml) are additionally added per 50 μl of reaction mix to the reaction mix for the in vitro transcription-translation assay. The assay mixture amounts to 105 μl, with 5 μl of the substance to be tested being introduced in 5% strength DMSO. 1 μg/100 μl of mixture of the plasmid pBESTLuc (Promega, Germany) are used as transcription template. After incubation at 30° C. for 60 min, 50 μl of luciferin solution (20 mM tricine, 2.67 mM MgSO4, 0.1 mM EDTA, 33.3 mM DTT pH 7.8, 270 μM CoA, 470 μM luciferin, 530 μM ATP) are added, and the resulting bioluminescence is measured in a luminometer for 1 minute. The IC50 is indicated by the concentration of an inhibitor which leads to 50% inhibition of the translation of firefly luciferase.

Assay [4] concerns S. aureus 133. The assay can be described thus: Systemic infection with S. aureus 133 (mouse sepsis model). The settings on record: female CFW1 mice, i.p. infection, i.v. therapy 30 minutes after infection, survival recorded for 6 days. The assay is classed as in vivo. On the procedure: Systemic Infection with S. aureus 133
The suitability of the compounds of the invention for treating bacterial infections can be shown in various animal models. For this purpose, the animals are generally infected with a suitable virulent microbe and then treated with the compound to be tested, which is in a formulation which is adopted to the particular therapy model.
For this purpose, S. aureus 133 cells are cultured overnight in BH broth (Oxoid, Germany). The overnight culture is diluted 1:100 in fresh BH broth and expanded for 3 hours. The bacteria which are in the logarithmic phase of growth are centrifuged and washed 2× with buffered physiological saline solution. A cell suspension in saline solution with an extinction of 50 units is then adjusted in a photometer (Dr. Lange LP 2W). After a dilution step (1:15), this suspension is mixed 1:1 with a 10% strength mucine suspension. 0.2 ml of this infection solution is administered i.p. per 20 g of mouse. This corresponds to a cell count of about 1-2×10E6 microbes/mouse. The i.v. therapy takes place 30 minutes after the infection. Female CFW1 mice are used for the infection test. The survival of the animals is recorded for 6 days. The animal model is adjusted so that untreated animals die within 24 h after the infection.

Assay [5] deals with translation of firefly luciferase, S. aureus RN4220 S30 extract. The assay can be described thus: In vitro transcription-translation with S. aureus extracts. Type of assay: biochemical. The note with it: reporter plasmid pla, 30° C., 60 min, luciferase luminescence.
From the text: as §1, §2, §3, §4, §5, §6, §7

Assay [6] concerns S. aureus RN4220. The assay can be described thus: Minimum inhibitory concentration (MIC), liquid dilution test. The assay is classed as cell-based. The note with it: Staphylococcus aureus, minimal medium with 0.4% BH broth, 37° C., 18-24 h. Here is the method:
as §8, §9, §10

In assay [7] the test system is Enterococcus faecalis ICB 27159. The description is as above. Type of assay: cell-based. The note with it: ICB27159, test medium with 10% FCS, 5% CO2, 37° C., 18-24 h, read-out: MIC E. faecalis ICB27159. On the procedure: as §8, §9, §10
Assay [8] deals with B. catarrhalis M3. Described as above. The assay is classed as cell-based. The note with it: Moraxella catarrhalis, minimal medium with 0.4% BH broth, 37° C., 18-24 h. Here is the method: as §8, §9, §10
For assay [9], the system named is S. aureus 25701. The assay is described as above. The settings on record: Staphylococcus aureus, minimal medium with 0.4% BH broth, 37° C., 18-24 h. Type of assay: cell-based. On the procedure:
as §8, §9, §10

Setting [10] is: Staphylococcus aureus, 133, read-out: MIC S. aureus 133.

The structures appear in SMILES notation. pIC50: −log10 of the molar value. Values after ≈ are worked out from the molar mass of the structure shown. Counter-ions that a name gives are not always drawn. Like-named read-outs stand apart in the source and are kept apart here.

Regarding `NC[C@H](O)C[C@@H]1NC(=O)[C@@H](N)Cc2cc(ccc2O)-c2ccc(O)c(c2)C[C@@H](C(=O)NCC(N)=O)NC1=O` [Example 37], the pIC50 in assay [1] is 6.30. Moreover, the minimum inhibitory concentration (MIC) in [2] (Staphylococcus aureus, 133, minimal medium with 0.4% BH broth, 37° C., 18-24 h, read-out: MIC S. aureus 133) came to 0.8 µM (≈ 0.423 µg/mL).

As for `NC[C@H](O)C[C@@H]1NC(=O)[C@@H](N)Cc2cc(ccc2O)-c2ccc(O)c(c2)C[C@@H](C(=O)NCc2ccccc2)NC1=O` [Example 2, (8S,11S,14S)-14-Amino-11-[(2R)-3-amino-2-hydroxypropyl]-N-benzyl-5,17-dihydroxy-10,13-dioxo-9,12-diazatricyclo[14.3.1.1^2,6]henicosa-1(20),2(21),3,5,16,18-hexaene-8-carboxamide dihydrochloride], the pIC50 in assay [3] is 6.26; in [5] it was 5.47; in assay [1] it was 5.35 to 5.89. Besides, the “therapeutic effect ED100” value in assay [4] amounted to 1.25 mg/kg. In addition, the MIC in assay [2] (setting [10]) was 25 µM; in assay [6], 12.5 µM; in assay [7] it was 25 µM; in [8] it was 25 µM; in assay [9], 50 µM.

With `NC[C@H](O)C[C@@H]1NC(=O)[C@@H](N)Cc2cc(ccc2O)-c2ccc(O)c(c2)C[C@@H](C(N)=O)NC1=O` [Example 1, (8S,11S,14S)-14-Amino-11-[(2R)-3-amino-2-hydroxypropyl]-5,17-dihydroxy-10,13-dioxo-9,12-diazatricyclo[14.3.1.1^2,6]henicosa-1(20),2(21),3,5,16,18-hexaene-8-carboxamide dihydrochloride], the pIC50 in assay [3] is 6.82; in [5] it was 6.30; in assay [1] it was 6.05. The MIC amounted to 0.2 µM in assay [2] (setting [10]); 0.1 µM in [6]; 6.25 µM in [7]; 1.56 µM in assay [8]; 6.25 µM in assay [9].

Source of the values: patent US20070129288A1, “Antibacterial amide macrocycles” (BAYER HEALTHCARE AG, priority 2002, published 2007).
